From patent US9346809B2 (LEO PHARMA A/S, priority 2009, dated 2016)
Read-outs that look alike come from different tables or passages of the source.

Experiments:
Assay type in all cases: biochemical
[1] = target: T1, JAK1 (aa 850-1154, catalytic domain, GST-tag) (Homo sapiens, UniProt P23458); assay: JAK kinase assay (HTRF, phosphorylation of TK substrate-biotin), JAK1; settings: ATP at Km (7 μM)
T1 construct: JAK1 (aa 850-1154) and TYK2 (aa 871-1187) are expressed with an N-terminally fused GST-tag; GST (N); purchased Carna Biosciences, Inc; host or cells: baculovirus expression system
T1 sequence (P23458 850-1154): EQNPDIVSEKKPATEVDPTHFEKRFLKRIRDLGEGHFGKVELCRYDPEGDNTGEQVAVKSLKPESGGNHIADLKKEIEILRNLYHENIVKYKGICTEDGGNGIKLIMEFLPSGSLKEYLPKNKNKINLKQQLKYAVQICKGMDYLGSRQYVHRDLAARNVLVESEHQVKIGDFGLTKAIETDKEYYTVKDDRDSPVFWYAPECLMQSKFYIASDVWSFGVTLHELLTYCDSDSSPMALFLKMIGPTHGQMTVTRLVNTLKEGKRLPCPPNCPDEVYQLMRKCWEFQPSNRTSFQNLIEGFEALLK
Outline: (§1)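 Per reaction, 5 ng JAK1, 0.1 ng JAK2, 0.3 ng JAK3 or 0.8 ng TYK2 (baculovirus-expressed catalytic domains) acted on 1 μM TK substrate-biotin at Km ATP for 20-30 min, RT. Phosphorylation measured by HTRF.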

[2] = target: T2, JAK2 (catalytic domain, His-tag) (Homo sapiens, UniProt O60674); assay: JAK kinase assay (HTRF, phosphorylation of TK substrate-biotin), JAK2; settings: ATP at Km (4 μM)
T2 construct: All four purified enzymes contain only the catalytic domain; His (N); purchased Carna Biosciences, Inc; host or cells: baculovirus expression system
T2 sequence (O60674 849-1124 limits assumed): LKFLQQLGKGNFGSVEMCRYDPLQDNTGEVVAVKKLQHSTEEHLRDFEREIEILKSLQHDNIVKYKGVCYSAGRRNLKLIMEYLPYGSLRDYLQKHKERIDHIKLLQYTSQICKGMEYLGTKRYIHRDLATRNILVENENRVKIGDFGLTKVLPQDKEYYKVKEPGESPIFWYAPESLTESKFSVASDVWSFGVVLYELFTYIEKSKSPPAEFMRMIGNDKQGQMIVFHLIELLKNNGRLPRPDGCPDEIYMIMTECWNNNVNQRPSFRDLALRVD
Outline: as §1

[3] = target: T3, JAK3 (catalytic domain, His-tag) (Homo sapiens, UniProt P52333); assay: JAK kinase assay (HTRF, phosphorylation of TK substrate-biotin), JAK3; settings: ATP at Km (2 μM)
T3 construct: All four purified enzymes contain only the catalytic domain; His (N); purchased Carna Biosciences, Inc; host or cells: baculovirus expression system
T3 sequence (P52333 822-1111 limits assumed): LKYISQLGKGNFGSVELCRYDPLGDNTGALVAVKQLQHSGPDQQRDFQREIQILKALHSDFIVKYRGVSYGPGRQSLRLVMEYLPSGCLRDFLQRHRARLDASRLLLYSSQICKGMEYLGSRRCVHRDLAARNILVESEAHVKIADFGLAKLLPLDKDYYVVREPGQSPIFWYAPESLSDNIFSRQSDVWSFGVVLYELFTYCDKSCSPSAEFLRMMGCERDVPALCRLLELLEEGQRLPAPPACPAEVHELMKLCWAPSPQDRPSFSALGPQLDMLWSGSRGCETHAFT
Outline: as §1

[4] = target: T4, TYK2 (aa 871-1187, catalytic domain, GST-tag) (Homo sapiens, UniProt P29597); assay: JAK kinase assay (HTRF, phosphorylation of TK substrate-biotin), TYK2; settings: ATP at Km (13 μM)
T4 construct: JAK1 (aa 850-1154) and TYK2 (aa 871-1187) are expressed with an N-terminally fused GST-tag; GST (N); purchased Carna Biosciences, Inc; host or cells: baculovirus expression system
T4 sequence (P29597 871-1187): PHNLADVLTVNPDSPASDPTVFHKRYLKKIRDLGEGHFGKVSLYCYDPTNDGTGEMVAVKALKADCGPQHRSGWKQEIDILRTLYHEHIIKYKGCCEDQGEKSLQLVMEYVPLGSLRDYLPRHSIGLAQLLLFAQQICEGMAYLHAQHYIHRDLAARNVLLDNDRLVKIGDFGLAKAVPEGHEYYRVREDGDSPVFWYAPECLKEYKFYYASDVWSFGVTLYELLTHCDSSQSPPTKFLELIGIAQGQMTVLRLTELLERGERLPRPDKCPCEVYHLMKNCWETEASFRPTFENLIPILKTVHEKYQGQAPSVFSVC
Outline: as §1

[5] = HTRF assay, read-out: JAK1 kinase inhibitory activity (EC50 indicator)
[6] = HTRF assay, read-out: JAK2 kinase inhibitory activity (EC50 indicator)
[7] = HTRF assay, read-out: JAK3 kinase inhibitory activity (EC50 indicator)
[8] = HTRF assay, read-out: TYK2 kinase inhibitory activity (EC50 indicator)
[9] = HTRF assay, read-out: JAK1 kinase inhibitory activity (EC50)
[10] = HTRF assay, read-out: JAK2 kinase inhibitory activity (EC50)
[11] = HTRF assay, read-out: JAK3 kinase inhibitory activity (EC50)
[12] = HTRF assay, read-out: TYK2 kinase inhibitory activity (EC50)
[13] = read-out: JAK1 kinase inhibitory activity (EC50 indicator)
[14] = read-out: JAK2 kinase inhibitory activity (EC50 indicator)
[15] = read-out: JAK3 kinase inhibitory activity (EC50 indicator)
[16] = read-out: TYK2 kinase inhibitory activity (EC50 indicator)

| Compound | EC50 [1, 5] [nM] | EC50 [2, 6] [nM] | EC50 [3, 7] [nM] | EC50 [4, 8] [nM] | EC50 [1, 13] [nM] | EC50 [2, 14] [nM] | EC50 [3, 15] [nM] | EC50 [4, 16] [nM] | also measured |
| --- | --- | --- | --- | --- | --- | --- | --- | --- | --- |
| N#Cc1ccc2[nH]c(C(=O)N3CCN(c4ncnc5[nH]ccc45)CC34CC4)cc2c1 [Example 217, 2-[7-(7H-Pyrrolo[2,3-d]pyrimidin-4-yl)-4,7-diaza-spiro[2.5]octane-4-carbonyl]-1H-indole-5-carbonitrile] | < 100 | < 100 | < 100 | 100 to 500 |  |  |  |  |  |
| NS(=O)(=O)c1ccc(C(=O)N2CCN(c3ncnc4[nH]ccc34)CC23CC3)cc1 [Example 369, 4-[7-(7H-Pyrrolo[2,3-d]pyrimidin-4-yl)-4,7-diaza-spiro[2.5]octane-4-carbonyl]-benzenesulfonamide] | < 100 | < 100 | < 100 | < 100 |  |  |  |  |  |
| NS(=O)(=O)c1ccc(NCCC(=O)N2CCN(c3ncnc4[nH]ccc34)CC23CC3)cc1 [Example 453, 4-{3-Oxo-3-[7-(7H-pyrrolo[2,3-d]pyrimidin-4-yl)-4,7-diaza-spiro[2.5]oct-4-yl]-propylamino}-benzenesulfonamide] |  |  |  |  |  |  |  |  | EC50 [1, 9]: < 100 nM; EC50 [2, 10]: < 100 nM; EC50 [3, 11]: 100 to 500 nM; EC50 [4, 12]: > 500 nM |
| CSCCC(=O)N1CCN(c2ncnc3[nH]ccc23)CC12CC2 [Example 455, 3-Methylsulfanyl-1-[7-(7H-pyrrolo[2,3-d]pyrimidin-4-yl)-4,7-diaza-spiro[2.5]oct-4-yl]-propan-1-one] |  |  |  |  |  |  |  |  | EC50 [1, 9]: < 100 nM; EC50 [2, 10]: < 100 nM; EC50 [3, 11]: < 100 nM; EC50 [4, 12]: 100 to 500 nM |
| O=C(O)C1(C(=O)N2CCN(c3ncnc4[nH]ccc34)CC23CC3)CC1 [Example 85, 1-[7-(7H-Pyrrolo[2,3-d]pyrimidin-4-yl)-4,7-diaza-spiro[2.5]octane-4-carbonyl]-cyclopropanecarboxylic acid] |  |  |  |  | > 500 | 100 to 500 | > 500 | > 500 |  |
| Cc1cc(S(N)(=O)=O)ccc1OCC(=O)N1CCN(c2ncnc3[nH]ccc23)CC12CC2 [Example 411, 3-Methyl-4-{2-oxo-2-[7-(7H-pyrrolo[2,3-d]pyrimidin-4-yl)-4,7-diaza-spiro[2.5]oct-4-yl]-ethoxy}-benzenesulfonamide] | < 100 | < 100 | < 100 | < 100 |  |  |  |  |  |
| NS(=O)(=O)c1ccc(C(=O)N2CCN(c3ncnc4[nH]ccc34)CC23CC3)o1 [Example 198, 5-[7-(7H-Pyrrolo[2,3-d]pyrimidin-4-yl)-4,7-diaza-spiro[2.5]octane-4-carbonyl]-furan-2-sulfonic acid amide] |  |  |  |  | < 100 | < 100 | < 100 | < 100 |  |
| N#Cc1ccc(C(=O)N2CCN(c3ncnc4[nH]ccc34)CC23CC3)cc1 [Example 15, 4-[7-(7H-Pyrrolo[2,3-d]pyrimidin-4-yl)-4,7-diazaspiro[2.5]octane-4-carbonyl]benzonitrile] |  |  |  |  | < 100 | < 100 | 100 to 500 | 100 to 500 |  |
| N#Cc1ccc(C(=O)N2[C@@H]3CC[C@H]2CN(c2ncnc4[nH]ccc24)C3)s1 [Example 71, 5-[3-(7H-Pyrrolo[2,3-d]pyrimidin-4-yl)-3,8-diaza-bicyclo[3.2.1]octane-8-carbonyl]-thiophene-2-carbonitrile] |  |  |  |  | < 100 | < 100 | < 100 | 100 to 500 |  |
| O=C(Cc1cccs1)N1[C@@H]2CC[C@H]1CN(c1ncnc3[nH]ccc13)C2 [Example 109, 1-[3-(7H-Pyrrolo[2,3-d]pyrimidin-4-yl)-3,8-diaza-bicyclo[3.2.1]oct-8-yl]-2-thiophen-2-yl-ethanone] |  |  |  |  | < 100 | < 100 | 100 to 500 | > 500 |  |
| Cc1c[nH]c2ncnc(N3CCN(C(=O)CCCC#N)C4(CC4)C3)c12 [Example 332, 5-[7-(5-Methyl-7H-pyrrolo[2,3-d]pyrimidin-4-yl)-4,7-diaza-spiro[2.5]oct-4-yl]-5-oxo-pentanenitrile] | > 500 | > 500 | > 500 | > 500 |  |  |  |  |  |
| O=C(c1cc2cc(F)cc(F)c2[nH]1)N1C2CCC1CN(c1ncnc3[nH]ccc13)C2 [Example 140, (5,7-Difluoro-1H-indol-2-yl)-[3-(7H-pyrrolo[2,3-d]pyrimidin-4-yl)-3,8-diaza-bicyclo[3.2.1]oct-8-yl]-methanone] |  |  |  |  | < 100 | < 100 | < 100 | > 500 |  |
| O=C1CC(C(=O)N2CCN(c3ncnc4[nH]ccc34)CC23CC3)c2ccccc21 (stereo not shown) [Example 126, 3-[7-(7H-Pyrrolo[2,3-d]pyrimidin-4-yl)-4,7-diaza-spiro[2.5]octane-4-carbonyl]-indan-1-one] |  |  |  |  | < 100 | < 100 | 100 to 500 | > 500 |  |
| N#Cc1cccc(CC(=O)N2CCN(c3ncnc4[nH]cc(Cl)c34)CC23CC3)c1 [Example 323, 3-{2-[7-(5-Chloro-7H-pyrrolo[2,3-d]pyrimidin-4-yl)-4,7-diaza-spiro[2.5]oct-4-yl]-2-oxo-ethyl}-benzonitrile] | > 500 | < 100 | 100 to 500 | > 500 |  |  |  |  |  |
| O=C(c1cc2c(s1)CCC2)N1CCN(c2ncnc3[nH]ccc23)CC12CC2 [Example 61, (5,6-Dihydro-4H-cyclopenta[b]thiophen-2-yl)[7-(7H-pyrrolo[2,3-d]pyrimidin-4-yl)-4,7-diaza-spiro[2.5]oct-4-yl]-methanone] |  |  |  |  | < 100 | < 100 | < 100 | < 100 |  |
| CS(=O)(=O)c1cc(C(=O)N2CCN(c3ncnc4[nH]ccc34)CC23CC3)ccc1F [Example 366, (4-Fluoro-3-methanesulfonyl-phenyl)-[7-(7H-pyrrolo[2,3-d]pyrimidin-4-yl)-4,7-diaza-spiro[2.5]oct-4-yl]-methanone] | < 100 | < 100 | 100 to 500 | > 500 |  |  |  |  |  |
| COc1cnc2[nH]ccc2c1N1CCN(C(=O)c2ccc(C#N)c(F)c2)C2(CC2)C1 [Example 292, 2-Fluoro-4-[7-(5-methoxy-1H-pyrrolo[2,3-b]pyridin-4-yl)-4,7-diaza-spiro[2.5]octane-4-carbonyl]-benzonitrile] | > 500 | 100 to 500 | 100 to 500 | > 500 |  |  |  |  |  |
| N#Cc1ccc(C(=O)N2CCN(c3ncnc4[nH]ccc34)CC23CC3)s1 [Example 193, 5-[7-(7H-Pyrrolo[2,3-d]pyrimidin-4-yl)-4,7-diaza-spiro[2.5]octane-4-carbonyl]-thiophene-2-carbonitrile] |  |  |  |  | < 100 | < 100 | < 100 | < 100 |  |
| N#Cc1cccc(CC(=O)N2CCN(c3nc(N)nc4[nH]ccc34)CC23CC3)c1 [Example 311, 3-{2-[7-(2-Amino-7H-pyrrolo[2,3-d]pyrimidin-4-yl)-4,7-diaza-spiro[2.5]oct-4-yl]-2-oxo-ethyl}-benzonitrile] | 100 to 500 | 100 to 500 | 100 to 500 | > 500 |  |  |  |  |  |
| N#Cc1ccc(CC(=O)N2[C@@H]3CC[C@@H]2CN(c2ncnc4[nH]ccc24)C3)cc1 [Example 180, 4-{2-Oxo-2-[3-(7H-pyrrolo[2,3-d]pyrimidin-4-yl)-3,8-diaza-bicyclo[3.2.1]oct-8-yl]-ethyl}-benzonitrile] |  |  |  |  | 100 to 500 | 100 to 500 | 100 to 500 | > 500 |  |
| CC(C)(C)OC(=O)N1[C@@H]2CC[C@H]1CN(c1ncnc3[nH]ccc13)C2 [Example 9, 3-(7H-Pyrrolo[2,3-d]pyrimidin-4-yl)-3,8-diaza-bicyclo[3.2.1]octane-8-carboxylic acid tert-butyl ester] |  |  |  |  | 100 to 500 | < 100 | 100 to 500 | > 500 |  |
| NS(=O)(=O)c1ccc(C(=O)C(=O)N2CCN(c3ncnc4[nH]ccc34)CC23CC3)cc1 [Example 63, 4-{2-Oxo-2-[7-(7H-pyrrolo[2,3-d]pyrimidin-4-yl)-4,7-diaza-spiro[2.5]oct-4-yl]-acetyl}-benzenesulfonamide] |  |  |  |  | < 100 | < 100 | < 100 | < 100 |  |
